Like-named read-outs stand apart in the source and are kept apart here.
Key:
hepatocytes = test system: hepatocytes; parameters: method as in PMID 31085175; conditions: cited from earlier work
[1] = Pantoprazole (proton pump inhibitor) DDI study, plasma pharmacokinetics; type: in vivo, human; conditions: for AUC(0-t) / AUC(0-inf) / Cmax / half-life / Tmax: both sexes, human, plasma; for AUC(0-t) / AUC(0-inf) / Cmax / half-life: po; for AUC(0-t) / AUC(0-inf) / Cmax / half-life / Tmax / CL/F, arithmetic mean (SD) / CL/F, geometric mean (CV%): fasting; for Tmax: read-out: tmax, median (min, max); for Time postdose that mean plasma concentration remained above the LLOQ: LLOQ 2.00 ng/mL
Description: All studies were phase 1, fixed‐sequence, open‐label studies in healthy volunteers. One study consisted of two separate cohorts examining DDIs between ripretinib and itraconazole or pantoprazole, respectively; the rifampin study was conducted separately. Studies and cohorts were enrolled independently. Eligible participants were healthy male or female adults between 18 and 55 years of age with a body mass index (BMI) of ≥18.5 and ≤30 kg/m^2. Good health was confirmed by a physician and based on medical evaluation with no significant findings, including medical history, physical examination, laboratory tests, and 12‐lead electrocardiogram (ECG) at screening and day −1. Participants were required to abstain from alcohol, marijuana, grapefruit, Seville oranges, tangelo, star fruit, and grapefruit‐like products 14 days prior to and during the study. Participants with a positive breath test for Helicobacter pylori were excluded from the pantoprazole study.
Participants were confined to the study center on days 1 through 16. On day 1, participants received an oral dose of ripretinib 50 mg under fasting conditions (Figure 1C). On days 8 through 13, participants received pantoprazole 40 mg once daily. On day 14, participants received pantoprazole 40 mg once daily and ripretinib 50 mg simultaneously under fasting conditions.
Ripretinib and its active metabolite DP‐5439 plasma concentrations were measured using a validated high‐performance liquid chromatography (HPLC) with tandem mass spectrometry (LC‐MS/MS) assay with a lower limit of quantification (LLOQ) of 2.00 ng/mL for both analytes. In this method, the analytes (ripretinib and DP‐5439) and the internal standards (ISs; DCC‐2618‐d5 and DP‐5439‐d5) were released from human plasma samples by protein precipitation. The supernatants were chromatographed using reversed‐phase HPLC with a Betasil® C8 analytical column with deionized water (0.1% formic acid) and 40/60 acetonitrile/acetone (0.1% formic acid) as the mobile phase. Mass spectrometric detection was performed on a triple quadrupole tandem mass spectrometer API 5000 or API 5500 (Applied Biosystems/MDS Sciex, Toronto, Canada) equipped with a turbo ion spray source operated in the positive ionization mode. The source parameters were collision energy 40 eV, collision gas 6 psi, Nebulizer Gas 1, Turbo IonSpray Gas 2, and curtain gas 35 psi. Quantification was obtained by using multiple reaction monitoring mode of the transitions of mass to charge ratio [m/z] 510.3 →417 for DCC‐2618 (ripretinib), m/z 496.2 →403 for DP‐5439, m/z 515.3 →417 for DCC‐2618‐d5, and m/z 501.2 →403 for DP‐5439‐d5.
Plasma concentration–time data were analyzed using noncompartmental methods using Phoenix® WinNonlin® v7.0 (Certara USA Inc., Princeton, New Jersey). Derived PK parameters included area under the concentration–time curve from time 0 to time t (AUC0–t) and area under the concentration–time curve from 0 to infinity (AUC0–∞), maximum observed concentration (Cmax), time of maximum observed concentration (tmax), elimination half‐life (t1/2), apparent systemic clearance, and for DP‐5439, metabolite to parent ratio for AUC0–t, AUC0–∞, and Cmax.
The PK population included all participants who received ≥1 dose ripretinib and had ≥1 nonmissing PK concentration in plasma reported for ripretinib or DP‐5439. The PK evaluable set included all participants in the PK population who had ripretinib PK parameters on both ripretinib dosing days, bioanalytical results for ≥75% of planned analyses, no missed ripretinib doses and ≤2 missed perpetrator (itraconazole, pantoprazole, or rifampin) doses before the second dosing day of ripretinib, and no emesis within 8 hours of ripretinib administration. […]

CYP2D6 = target: T1, CYP2D6 (Homo sapiens, UniProt P10635); assay: Incubation with recombinant human CYPs, substrate disappearance; type: in vitro ADME; conditions: ripretinib 0.1 or 1 μM, data on file
T1 construct: with human liver microsomes (0.5 mg protein/mL) for 30 minutes; from tissue; host or cells: human liver microsomes
Description: (§1) In vitro studies with recombinant human cytochrome P450 isoforms (CYPs) and human liver microsomes (with chemical inhibitors) indicate that CYP3A4/5 plays a major role in the metabolism of ripretinib (data on file). When incubated with a panel of recombinant human CYPs, ripretinib (0.1 or 1 μM) disappeared in the presence of CYP3A4 (87.8%–100%), CYP2D6 (97.7%–100%), CYP2C8 (71.2% and 18.9%, respectively), and CYP2C19 (15.7% and 6.7%, respectively).

CYP2C19 = CYP2C19 (Homo sapiens, UniProt P33261); assay: as above; type: in vitro ADME; conditions: data on file
Description: as §1

CYP2C9 = CYP2C9 (Homo sapiens, UniProt P11712); assay: as above; type: in vitro ADME; conditions: ripretinib 0.1 or 1 μM, data on file
Description: as §1

[2] = Safety assessment (TEAEs), rifampin study; type: in vivo, human
Description: Participants were confined to the study center from days −1 through 22 for the collection of plasma PK samples and all study procedures. Participants received an oral dose of ripretinib 100 mg on day 1 under fasting conditions; a higher dose of ripretinib was used than in the itraconazole or pantoprazole study due to the potential for decreased ripretinib exposure when coadministered with a strong CYP3A inducer (Figure 1B). On day 8, participants received oral doses of rifampin 600 mg once daily 1 hour before a meal with a full glass of water for 14 consecutive days through day 21. On day 18, participants received a second dose of ripretinib 100 mg administered simultaneously with rifampin 600 mg under fasting conditions. Blood samples for PK analysis were collected at predose and 1, 2, 3, 4, 5, 8, 10, 12, 24, 36, 48, 72, and 96 hours after administration of ripretinib on days 1 and 18. Safety was assessed throughout the study period and with a follow‐up phone call on day 29 or 7 days after discontinuation in the case of early withdrawal.
Relationship to study drug was assessed by the investigator.
Safety data were summarized as n (%).

[3] = ripretinib 50 mg single oral dose + pantoprazole 40 mg QD, healthy participants (N = 23)
[4] = ripretinib 50 mg single oral dose alone, healthy participants (pantoprazole study, N = 23)
[5] = ripretinib 50 mg with pantoprazole 40 mg QD relative to ripretinib alone
[6] = ripretinib 50 mg with pantoprazole 40 mg QD relative to ripretinib alone, listed as ripretinib

CYP2C19, sequence (P33261 whole entry): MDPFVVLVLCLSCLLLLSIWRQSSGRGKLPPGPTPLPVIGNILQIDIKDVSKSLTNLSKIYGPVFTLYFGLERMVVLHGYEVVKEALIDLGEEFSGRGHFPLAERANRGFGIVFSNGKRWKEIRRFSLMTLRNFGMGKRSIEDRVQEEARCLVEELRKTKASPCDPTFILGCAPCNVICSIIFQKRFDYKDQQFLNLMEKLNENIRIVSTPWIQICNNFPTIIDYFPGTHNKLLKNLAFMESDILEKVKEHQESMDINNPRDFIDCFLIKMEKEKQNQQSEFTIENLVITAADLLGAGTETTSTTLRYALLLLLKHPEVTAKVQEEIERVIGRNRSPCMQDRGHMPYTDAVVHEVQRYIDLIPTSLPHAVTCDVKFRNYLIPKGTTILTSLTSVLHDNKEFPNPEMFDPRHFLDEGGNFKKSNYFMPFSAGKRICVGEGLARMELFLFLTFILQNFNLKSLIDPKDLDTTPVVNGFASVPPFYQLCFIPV
CYP2C9, sequence (P11712 whole entry): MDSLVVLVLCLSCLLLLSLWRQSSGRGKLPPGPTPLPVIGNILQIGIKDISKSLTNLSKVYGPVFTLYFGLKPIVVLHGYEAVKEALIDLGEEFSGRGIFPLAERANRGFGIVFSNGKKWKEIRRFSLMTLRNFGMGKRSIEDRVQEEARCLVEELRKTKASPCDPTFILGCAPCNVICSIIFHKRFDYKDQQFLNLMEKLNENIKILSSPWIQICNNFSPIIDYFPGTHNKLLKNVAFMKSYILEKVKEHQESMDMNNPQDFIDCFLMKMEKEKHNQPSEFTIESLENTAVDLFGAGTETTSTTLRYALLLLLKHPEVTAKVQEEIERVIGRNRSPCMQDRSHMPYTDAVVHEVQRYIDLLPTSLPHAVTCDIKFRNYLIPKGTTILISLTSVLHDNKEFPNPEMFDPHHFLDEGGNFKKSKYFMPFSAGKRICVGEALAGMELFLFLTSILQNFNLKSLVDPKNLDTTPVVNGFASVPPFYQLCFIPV
T1 sequence (P10635 whole entry): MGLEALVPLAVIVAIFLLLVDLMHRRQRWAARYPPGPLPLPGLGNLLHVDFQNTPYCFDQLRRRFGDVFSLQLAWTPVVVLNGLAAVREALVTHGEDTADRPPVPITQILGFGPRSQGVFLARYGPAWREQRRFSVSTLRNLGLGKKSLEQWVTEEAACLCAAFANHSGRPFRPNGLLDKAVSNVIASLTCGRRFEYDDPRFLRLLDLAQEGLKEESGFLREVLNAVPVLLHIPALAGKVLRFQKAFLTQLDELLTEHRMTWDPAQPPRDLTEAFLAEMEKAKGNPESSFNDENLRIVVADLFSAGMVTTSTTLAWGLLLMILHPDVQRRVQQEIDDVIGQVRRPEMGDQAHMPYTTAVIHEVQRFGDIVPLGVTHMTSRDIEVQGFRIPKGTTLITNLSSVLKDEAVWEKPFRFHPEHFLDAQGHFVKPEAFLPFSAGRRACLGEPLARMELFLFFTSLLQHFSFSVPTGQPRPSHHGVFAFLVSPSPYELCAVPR

Which Major metabolic pathway (hepatocytes) does the source give for `CCn1c(=O)c(-c2cc(NC(=O)Nc3ccccc3)c(F)cc2Br)cc2cnc(NC)cc21` [Ripretinib] here?
The Major metabolic pathway was “N‐demethylation”.

What about the AUC(0-t) ([1]; 50 mg, ripretinib 50 mg single oral dose alone, healthy participants (pantoprazole study, N = 23), read-out: AUC0–t, arithmetic mean (SD)) of the same molecule?
Its AUC(0-t) is 3870 ng·h/mL.

And the AUC(0-t) ([1]; 50 mg, ripretinib 50 mg single oral dose alone, healthy participants (pantoprazole study, N = 23), read-out: AUC0–t, geometric mean (CV%))?
Its AUC(0-t) is 3610 ng·h/mL.

And the AUC(0-inf) ([1]; 50 mg, ripretinib 50 mg single oral dose alone, healthy participants (pantoprazole study, N = 23), read-out: AUC0–∞, arithmetic mean (SD))?
The AUC(0-inf) was 3950 ng·h/mL.

And the AUC(0-inf) ([1]; 50 mg, ripretinib 50 mg single oral dose alone, healthy participants (pantoprazole study, N = 23), read-out: AUC0–∞, geometric mean (CV%))?
Its AUC(0-inf) is 3690 ng·h/mL.

What about the Cmax ([1]; 50 mg, ripretinib 50 mg single oral dose alone, healthy participants (pantoprazole study, N = 23), read-out: Cmax, arithmetic mean (SD)) of the same molecule?
Its Cmax is 301 ng/mL.

And the Cmax ([1]; 50 mg, ripretinib 50 mg single oral dose alone, healthy participants (pantoprazole study, N = 23), read-out: Cmax, geometric mean (CV%))?
Its Cmax is 289 ng/mL.

And the half-life ([1]; 50 mg, ripretinib 50 mg single oral dose alone, healthy participants (pantoprazole study, N = 23), read-out: t1/2, arithmetic mean (SD) (converted))?
The half-life was 14 h.

And the half-life ([1]; 50 mg, ripretinib 50 mg single oral dose alone, healthy participants (pantoprazole study, N = 23), read-out: t1/2, geometric mean (CV%) (converted))?
The half-life was 13 h.

And the AUC(0-t) ([1]; ripretinib 50 mg single oral dose + pantoprazole 40 mg QD, healthy participants (N = 23), read-out: AUC0–t, arithmetic mean (SD))?
Its AUC(0-t) is 4220 ng·h/mL.

What about the AUC(0-t) ([1]; ripretinib 50 mg single oral dose + pantoprazole 40 mg QD, healthy participants (N = 23), read-out: AUC0–t, geometric mean (CV%)) of the same molecule?
The AUC(0-t) was 3940 ng·h/mL.

What about the AUC(0-inf) ([1]; ripretinib 50 mg single oral dose + pantoprazole 40 mg QD, healthy participants (N = 23), read-out: AUC0–∞, arithmetic mean (SD)) of the same molecule?
Its AUC(0-inf) is 4310 ng·h/mL.

And the AUC(0-inf) ([1]; ripretinib 50 mg single oral dose + pantoprazole 40 mg QD, healthy participants (N = 23), read-out: AUC0–∞, geometric mean (CV%))?
The AUC(0-inf) was 4030 ng·h/mL.

And the Cmax ([1]; ripretinib 50 mg single oral dose + pantoprazole 40 mg QD, healthy participants (N = 23), read-out: Cmax, arithmetic mean (SD))?
Its Cmax is 319 ng/mL.

What about the Cmax ([1]; ripretinib 50 mg single oral dose + pantoprazole 40 mg QD, healthy participants (N = 23), read-out: Cmax, geometric mean (CV%)) of the same molecule?
The Cmax was 298 ng/mL.

And the half-life ([1]; ripretinib 50 mg single oral dose + pantoprazole 40 mg QD, healthy participants (N = 23), read-out: t1/2, arithmetic mean (SD) (converted))?
Its half-life is 14 h.

And the half-life ([1]; ripretinib 50 mg single oral dose + pantoprazole 40 mg QD, healthy participants (N = 23), read-out: t1/2, geometric mean (CV%) (converted))?
Its half-life is 14 h.

What about the Tmax [1, 3] of the same molecule?
The Tmax was 4 h.

And the Tmax [1, 4]?
Its Tmax is 4 h.

What about the “Effect of pantoprazole on exposure / pharmacokinetics” value ([1]; ripretinib 50 mg + pantoprazole 40 mg QD) of the same molecule?
The value was “no effect”.

And the “Time postdose that mean plasma concentration remained above the LLOQ” value ([1]; ripretinib 50 mg alone (pantoprazole study))?
The value was under 96 h.

And the “CL/F, arithmetic mean (SD)” value [1, 3]?
The value was 13 (5) L/h.

And the “CL/F, geometric mean (CV%)” value [1, 3]?
The value was 12 (38) L/h.

And the “CL/F, arithmetic mean (SD)” value [1, 4]?
The value was 14 (5) L/h.

What about the “CL/F, geometric mean (CV%)” value [1, 4] of the same molecule?
Its value is 14 (38) L/h.

And the “Geometric LS mean ratio of AUC0–t” value [1, 5]?
Its value is 109%.

And the “Geometric LS mean ratio of AUC0–∞ (90% CI)” value [1, 5]?
The value was 109 (98–122) %.

And the “Geometric LS mean ratio of Cmax (90% CI)” value [1, 5]?
The value was 103 (91–117) %.

And the “Geometric LS mean ratio of AUC0–∞ (90% CI)” value [1, 6]?
The value was 109%.

And the “Geometric LS mean ratio of Cmax (90% CI)” value [1, 6]?
The value was 103%.

And the “Time postdose that mean plasma concentration remained above the LLOQ” value ([1]; ripretinib 50 mg with pantoprazole)?
The value was under 96 h.

What about the Substrate disappearance (CYP2D6) of the same molecule?
The Substrate disappearance was 97.7%–100%.

What about the Substrate disappearance (CYP2C19; ripretinib 0.1 μM) of the same molecule?
The Substrate disappearance was 15.7%.

And the Substrate disappearance (CYP2C19; ripretinib 1 μM)?
The Substrate disappearance was 6.7%.

What about the Substrate disappearance (CYP2C9) of the same molecule?
The Substrate disappearance was “less than 7%”.

What about the “Number of TEAEs assessed as related to study drug” value ([2]; human, in vivo, 21 days) of the same molecule?
The value was 78.

And the “Participants with TEAEs assessed as related to study drug per the investigator” value ([2]; human, in vivo, 21 days)?
The value was 23 (95.8%) n (%).

And the “Total number of TEAEs” value ([2]; human, in vivo, 21 days)?
The value was 94.

What about the “Deaths and serious AEs” value ([2]; rifampin study, N = 24) of the same molecule?
The value was “No deaths or SAEs occurred”.

Reference: publication PMC9790248, “Effects of CYP3A Inhibition, CYP3A Induction, and Gastric Acid Reduction on the Pharmacokinetics of Ripretinib, a Switch Control KIT Tyrosine Kinase Inhibitor” (Clinical Pharmacology in Drug Development, 2022)
